Results taken from publication PMC3303948 (Steroids, 2012).
“And” between values parts separate entries of the source, which are not always exact repeats. Identical values can stand only once.

Experiments:
CYP24 [1] = conditions: cited from earlier work
CYP24 [2] = conditions: in vitro; 50 nM CTA091; ref Zhang et al., manuscript under review; cited from earlier work
[3] = Compartmental analysis of plasma and tumor 1,25
CYP27B1 mRNA = CYP27B1 mRNA expression in H292 cells in vitro; assay type: cell-based, human; conditions: data not shown
Tumor = assay type: in vivo, nu/nu mice
[4] = Plasma pharmacokinetics of 1,25; assay type: in vivo, nu/nu mice
CYP24 mRNA [5] = assay: CYP24 mRNA expression in H292 cells in vitro
[6] = ref personal communication, M. Petkovich; cited from earlier work
[7] = 0.5 µg/kg once weekly; oncology setting; cited from earlier work
CYP24 mRNA [8] = assay: CYP24 mRNA expression in H292 xenografts in vivo
[9] = rats, a similar dose (to 250 µg/kg)
[10] = compartmental model, 250 µg/kg CTA091
[11] = 250 µg/kg CTA091 i.p. with 20 µg/kg 1,25(OH)2D3 versus 1,25(OH)2D3 alone
[12] = compartmental model, tumor volume fixed at 1 L/kg
[13] = female, nu/nu, mouse, plasma, ip, 20 ug/kg
[14] = female, nu/nu, mouse, tumor (H292 xenograft), ip, 20 ug/kg

C=C1/C(=C\C=C2/CCC[C@]3(C)[C@@H]([C@H](C)CCS(=N)(=O)c4ccccc4)CC[C@@H]23)C[C@@H](O)C[C@@H]1O (stereo partly drawn) [CTA091]
Increase in rat serum 1,25(OH)2D3 Cmax (CYP24 [1]; rat, 500 µg/kg CTA091): 1.5 fold | Increase in rat serum 1,25(OH)2D3 exposure (CYP24 [1]; rat, 500 µg/kg CTA091): 1.4 fold | Effect on endogenous 1,25(OH)2D3 levels (CYP24 [1]; [9]): increased endogenous 1,25(OH)2D3 levels | Effect on serum PTH levels (CYP24 [1]; [9]): decreased serum PTH levels | Effect on 1,25(OH)2D3-mediated transcription (CYP24 [2]): significantly increases 1,25(OH)2D3-mediated transcription | Inhibition of 1,25(OH)2D3 catabolism (CYP24 [2]): consistently and maximally inhibits 1,25(OH)2D3 catabolism | Decrease in plasma clearance of 1,25(OH)2D3 by CTA091 [3, 10]: 20% | Decrease in tumor clearance of 1,25(OH)2D3 by CTA091 [3, 10]: 46% | ktc/(ktc+ ktumor elim) ([3]; compartmental model, tumor clearance with versus without CTA091): 0.54 | Effect on CYP27B1 mRNA expression (CYP27B1 mRNA): no effect | +/− CTA091 Ratio, tumor/plasma AUC0–h of 1,25(OH)2D3 (Tumor; [11]): 1.8 | +/− CTA091 Ratio, tumor/plasma Cmax of 1,25(OH)2D3 (Tumor; [11]): 1.7 | Increase in 1,25(OH)2D3 tumor levels by co-administered CTA091 (Tumor; 250 µg/kg CTA091 with 20 µg/kg 1,25(OH)2D3 i.p., H292 tumor): 2.6 fold | +/− CTA091 Ratio, plasma AUC0-inf of 1,25(OH)2D3 [4, 11]: 1.5 | +/− CTA091 Ratio, plasma AUC0–8h of 1,25(OH)2D3 [4, 11]: 1.4 | +/− CTA091 Ratio, plasma Cl/F of 1,25(OH)2D3 [4, 11]: 0.68 | +/− CTA091 Ratio, plasma Cmax of 1,25(OH)2D3 [4, 11]: 1.6 | +/− CTA091 Ratio, plasma Kel of 1,25(OH)2D3 [4, 11]: 0.86 | +/− CTA091 Ratio, plasma Tmax of 1,25(OH)2D3 [4, 11]: 2 | +/− CTA091 Ratio, plasma Vd/F of 1,25(OH)2D3 [4, 11]: 0.79 | +/− CTA091 Ratio, plasma t1/2 of 1,25(OH)2D3 [4, 11]: 1.2 | Increase in 1,25(OH)2D3 plasma levels (Cmax) by co-administered CTA091 ([4]; 250 µg/kg CTA091 with 20 µg/kg 1,25(OH)2D3 i.p.): 1.6 fold | Increase in 1,25(OH)2D3 plasma terminal half-life by CTA091 ([4]; 250 µg/kg CTA091 with 20 µg/kg 1,25(OH)2D3 i.p., non-compartmental): approximately 1.2 fold | Increase of the transcriptional induction of CYP24 by 1,25(OH)2D3 (CYP24 mRNA [5]; H292 cells, CTA091 with 1,25(OH)2D3, data not shown): approximately 4 fold | Effect of CTA091 alone on CYP24 gene expression (CYP24 mRNA [5]; H292 cells, data not shown): no effect | Plasma clearance of CTA091 relative to 1,25(OH)2D3 [6]: cleared from plasma more rapidly than 1,25(OH)2D3

C=C1/C(=C\C=C2/CCC[C@]3(C)[C@@H]([C@H](C)CCCC(C)(C)O)CC[C@@H]23)C[C@@H](O)C[C@@H]1O [1,25(OH)2D3, 1,25-dihydroxyvitamin D3]
Safety of high-dose 1,25(OH)2D3 [7]: safely delivered | kct, transfer rate constant from the central to the tumor compartment, Estimate (%SE) [3, 12]: 0.454 (18) h^−1 | ktc, transfer rate constant from the tumor to the central compartment, Estimate (%SE) [3, 12]: 1.24 (22) h^−1 | CL/F [3, 13]: 4.85 mL/min/kg | Vd/F [3, 13]: 0.653 L/kg | half-life [3, 13]: 1.56 h | k el [3, 13]: 0.000124 s⁻¹ | k el ([3]; female, nu/nu, mouse, tumor (H292 xenograft), intraperitoneal, 20 µg/kg): 0.000292 s⁻¹ | half-life [3, 14]: 0.661 h | k el [3, 14]: 0.000289 s⁻¹ | Maximum tumor concentration of 1,25(OH)2D3 (Tumor; H292 tumor, 20 µg/kg 1,25(OH)2D3 i.p.): 1.70 ng/mL | Tumor Cmax of 1,25(OH)2D3 (Tumor; H292 tumor, 20 µg/kg 1,25(OH)2D3 i.p. alone or with 250 µg/kg CTA091): 1.7 ng/g and 1.70 ng/g | Tmax (Tumor; [14]): 2 h | half-life (Tumor; [14]): 1.95 h | k el (Tumor; [14]): 9.86e-05 s⁻¹ | Peak tumor concentration of 1,25(OH)2D3 (molar) (Tumor; given that 1 g of tumor has a volume of 1 mL, without or with CTA091): 3.8 nM | AUC(0-inf) [4, 13]: 69.1 ng·h/mL | AUC(0-t) [4, 13]: 67.4 ng·h/mL | CL/F [4, 13]: 4.82 mL/min/kg | Cmax [4, 13]: 21.6 ng/mL | Tmax [4, 13]: 0.25 h | Vd/F [4, 13]: 0.592 L/kg | half-life [4, 13]: 1.42 h | k el [4, 13]: 0.000136 s⁻¹ | Tmax ([4]; female, nu/nu, mouse, plasma, ip, 20 µg/kg): 0.25 to 0.5 h | Induction of CYP24 expression in H292 cells in vitro (CYP24 mRNA [5]; 1 nM 1,25(OH)2D3 (Fig. 1A)): induced to express CYP24 | Increase in tumor CYP24 mRNA levels (CYP24 mRNA [8]; single dose of 1,25(OH)2D3, 4 h post-treatment): approximately 4 fold | Increase in tumor CYP24 mRNA levels (CYP24 mRNA [8]; single dose of 1,25(OH)2D3, after 8 h): ~15 fold
